Columns and labels:
[1] = Background peptides, chemical elution versus on-bead digestion; set-up: species or system mouse; settings: chemical elution compared with on-bead digestion
Procedure: (§1) After enrichment on immobilized avidin, each of the three labeled proteomes (FIG. 5b) was divided into two aliquots. One was prepared for LC-MS/MS analysis by “on bead” digestion, while the other was chemically eluted and digested “in solution.” Proteins identified in each tissue lysate are listed with their accession number and theoretical molecular weight (MW). To compare both approaches, the number of identified peptides and percentage of amino acid sequence coverage is listed for each protein.
Carboxylesterase 4 has not been characterized on a functional level and has never been confirmed to be catalytically active (Rawlings, N. D., Morton, F. R., and Barrett, A. J. (2006) MEROPS: the peptidase database. Nucleic Acids Res 34, D270-272.). […] Overall the level of background peptides was decreased by over 90%, when chemical elution was used for the sample preparation (as shown in the above Table). Although the number of carboxylesterase peptides identified was reduced compared to the on-bead sample we could still make a confident identification with nearly 40% coverage of peptide sequence.

[2] = molecular target: T1, propionyl-Coenzyme A carboxylase (Mus musculus, UniProt Q91ZA3); test: LC/MS/MS identification of proteins from mouse liver extracts labeled with MTS-I-49; type: biochemical
T1 construct: from tissue; host or cells: mouse liver extract
T1 sequence (Q91ZA3 49-724): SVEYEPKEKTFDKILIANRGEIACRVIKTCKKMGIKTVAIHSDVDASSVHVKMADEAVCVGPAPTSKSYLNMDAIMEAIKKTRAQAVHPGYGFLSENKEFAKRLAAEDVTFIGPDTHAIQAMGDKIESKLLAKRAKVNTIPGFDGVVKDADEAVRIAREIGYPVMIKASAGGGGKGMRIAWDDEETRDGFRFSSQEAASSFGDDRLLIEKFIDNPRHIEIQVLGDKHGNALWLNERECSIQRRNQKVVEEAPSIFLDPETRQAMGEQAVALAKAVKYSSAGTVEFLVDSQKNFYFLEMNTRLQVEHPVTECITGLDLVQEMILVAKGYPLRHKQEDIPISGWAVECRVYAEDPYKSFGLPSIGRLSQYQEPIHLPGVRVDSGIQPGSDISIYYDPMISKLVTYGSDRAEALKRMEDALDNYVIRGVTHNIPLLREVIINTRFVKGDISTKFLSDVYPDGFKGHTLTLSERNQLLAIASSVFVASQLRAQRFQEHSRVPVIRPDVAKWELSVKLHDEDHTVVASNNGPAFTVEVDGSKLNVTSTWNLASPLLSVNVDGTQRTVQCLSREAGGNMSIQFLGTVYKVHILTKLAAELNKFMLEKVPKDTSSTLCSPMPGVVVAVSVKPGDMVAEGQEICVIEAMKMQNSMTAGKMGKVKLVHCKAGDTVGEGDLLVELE
T1 sequence (Q99MN9 29-541 partner): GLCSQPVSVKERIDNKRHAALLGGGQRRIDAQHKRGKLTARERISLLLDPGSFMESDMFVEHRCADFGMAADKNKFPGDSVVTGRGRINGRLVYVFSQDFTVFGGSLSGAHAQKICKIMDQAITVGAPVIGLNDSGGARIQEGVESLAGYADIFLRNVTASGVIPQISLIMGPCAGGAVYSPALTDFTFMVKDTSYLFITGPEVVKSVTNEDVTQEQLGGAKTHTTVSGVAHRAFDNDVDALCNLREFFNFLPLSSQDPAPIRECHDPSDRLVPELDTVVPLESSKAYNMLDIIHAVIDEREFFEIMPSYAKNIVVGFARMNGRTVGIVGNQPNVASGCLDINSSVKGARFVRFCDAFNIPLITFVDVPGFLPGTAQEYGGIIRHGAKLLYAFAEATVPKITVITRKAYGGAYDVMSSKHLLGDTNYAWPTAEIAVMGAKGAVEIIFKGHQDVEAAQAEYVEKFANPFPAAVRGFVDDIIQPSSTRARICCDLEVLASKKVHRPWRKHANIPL
From the text: (§2) (1991) Irreversible inhibition of serine proteases by peptide derivatives of (alpha-aminoalkyl)phosphonate diphenyl esters. Biochemistry 30, 485-493). However, it has not been used for any proteomic applications. We used MTS-I-49 to label mouse liver extracts and analyze the labeled sample by both SDS-PAGE (FIG. 5B) and by direct chemical cleavage or on bead digestion.
as §1
(§3) Proteins in the above Table were identified by LC/MS/MS analysis of on bead digested or chemically eluted proteins from mouse liver extracts labeled with MTS-I-49. […] BLAST database searching identified it as liver carboxylesterase 4. A number of additional endogenously biotinylated proteins were identified in the on-bead digested sample.

[3] = tested on: glutathione-S-transferase; test: as above; type: biochemical
From the text: as §2, §1, §3

[4] = chemically eluted, digested in solution

C[C@H](NC(=O)c1ccc(N=Nc2cc(CCNC(=O)CCCC[C@@H]3SC[C@@H]4NC(=O)N[C@@H]43)ccc2O)cc1)C(=O)N[C@@H](C)C(=O)NC(Cc1ccccc1)P(=O)(Oc1ccccc1)Oc1ccccc1 (stereo partly drawn) [MTS-I-49]
decrease of the level of background peptides [1]: over 90%
Chemical Cleavage, amino acid sequence coverage [2, 4]: 8%
Chemical Cleavage, number of identified peptides [2, 4]: 3
On Bead Digestion, amino acid sequence coverage ([2]; on bead digestion): 45%
On Bead Digestion, number of identified peptides ([2]; on bead digestion): 22
Chemical Cleavage, amino acid sequence coverage [3, 4]: 12%
Chemical Cleavage, number of identified peptides [3, 4]: 2
On Bead Digestion, amino acid sequence coverage ([3]; on bead digestion): 44%
On Bead Digestion, number of identified peptides ([3]; on bead digestion): 8

— patent US8314215B2, “Mild chemically cleavable linker system” (The Board of Trustees of the Leland Stanford Junior …, priority 2006, dated 2012)
